Columns and labels:
[1] = tested on: ERAP1 K528R; test: LAMC hydrolysis, ERAP1 K528R; format: biochemical, human; conditions: no activating peptide, 25°C, up to 10 min
[2] = tested on: ERAP1 alleles (Ref, K528R, Q730E); test: LAMC hydrolysis, all three ERAP1 alleles; format: biochemical, human; conditions: no activating peptide; 25°C, up to 10 min
[3] = tested on: ERAP1 alleles (Ref, K528R, Q730E); test: LAMC trimming in the presence of SIINFEKL, all three ERAP1 alleles; format: biochemical, human; conditions: 100 μM SIINFEKL
[4] = molecular target: ERAP1 K528R (528R) (Homo sapiens, UniProt Q9NZ08, K528R); test: Michaelis–Menten kinetics of antigenic peptide precursor trimming, ERAP1 K528R; format: biochemical
[5] = tested on: ERAP1 Q730E (730E); test: Michaelis–Menten kinetics of antigenic peptide precursor trimming, ERAP1 Q730E; format: biochemical, human; conditions: low substrate concentrations (kcat/KM); Q730E vs Ref and K528R
[6] = molecular target: ERAP1 Q730E (730E) (Homo sapiens, UniProt Q9NZ08, Q730E); test: as above; format: biochemical; conditions: 730E allele; classical MM model; initial trimming rates, reactions limited to 10 min, 25°C
[7] = tested on: ERAP1 Q730E; test: Activation of LAMC trimming by SIINFEKL, ERAP1 Q730E; format: biochemical, human; conditions: 100 μM SIINFEKL, 25°C, up to 10 min
[8] = tested on: ERAP1; conditions: 8mer peptide; ref [3]; cited from earlier work
[9] = tested on: ERAP1 K528R; test: Activation of LAMC trimming by SIINFEKL, ERAP1 K528R; format: biochemical, human; conditions: 100 μM SIINFEKL, 25°C, up to 10 min
[10] = molecular target: ERAP1 Q730E (rs27044) (human, UniProt Q9NZ08-2 1-948, Q730E); test: enzyme kinetics
[11] = molecular target: endoplasmic reticulum aminopeptidase 1 (ERAP1), ancestral reference sequence NP_057526 (human, UniProt Q9NZ08-2 1-948); test: enzyme kinetics
[12] = 528R allele, classical MM model, initial trimming rates, reactions limited to 10 min, 25°C

Molecule: Cc1cc(=O)oc2cc(NC(=O)[C@@H](N)CC(C)C)ccc12 [LAMC, L-leucine-7-amido-4-methyl coumarin]
- fold less active of ERAP1 K528R in LAMC hydrolysis [1]: ~ 4 fold
- hydrolysis of LAMC by all three variants [2]: enzymatically active
- trimming activity of all three alleles toward LAMC in the presence of SIINFEKL ([3]; comparison between the three alleles): comparable trimming activity

Molecule: LATFPDTLTY
- Km [4, 12]: 49 ± 13 µM
- kcat [4, 12]: 3.09 ± 0.203 s^–1
- kcat/KM [4, 12]: 63 ± 17 × 10^3 s^–1 M^–1
- processing rate by the K528R allele relative to other alleles ([4]; saturating conditions (kcat controls trimming rates)): twice as quickly
- processing rate, fold more slowly by Q730E than by the other two alleles [5]: 2 fold
- Km [6]: 45 ± 11 µM
- kcat [6]: 1.635 ± 0.10 s^–1
- kcat/KM [6]: 36 ± 9 × 10^3 s^–1 M^–1

Molecule: SIINFEKL
- magnitude of activation of LAMC trimming [7]: 1.6 fold
- substrate quality for ERAP1 [8]: poor substrate
- ERAP1-mediated hydrolysis of LAMC in the presence of SIINFEKL [3]: enhanced
- magnitude of activation of LAMC trimming [9]: 4 fold

Molecule: LKRVVINKDT [LKRVVINKDT, single-amino acid extended precursor of the HLA-B27 ligand KRVVINKDT]
- Ki [10]: 132 ± 53 µM

Molecule: YKRFEGLTQR [YKRFEGLTQR, single-amino acid extended precursor of the HLA-B27 ligand KRFEGLTQR]
- Ki [11]: 394 ± 133 µM
